Molecular target: FAS (Mus musculus, UniProt P19096)
Experiment: FAS activity of treated 3T3-L1 cells (method of Kelley, NADPH oxidation)
Assay type: cell-based
Conditions: C75 25 µM, 6 days; compared with rAIM
Procedure: The influence of AIM on FAS activity of adipocyte or adipose tissue was examined. FAS activity was measured by the method of Kelley (Kelley et al., Biochem. J., 1986, 235:87-90) with slight modification. 3T3-L1 adipocytes, or lysates of adipose tissue of obese mice was mixed with acetyl-CoA and NADPH (0.2 M calcium phosphate buffer [pH 7.0] containing 0.4 mM EDTA), and the mixture was placed in a spectrophotometer cuvette and maintained at 30°C. 20 µl of malonyl-CoA solution (0.2 mM) was added to start an enzyme reaction and decrease of OD was measured at a chart speed 2 cm/min. Based on the results, the enzyme activity of FAS was evaluated using the molar extinction coefficient of oxidized NADPH as 6220.
First, the FAS activity of 3T3-L1 cells treated for 6 days in the presence or absence of rAIM (5 µg/ml), and in the presence of C75 (25 µM) was measured. […] The samples were dissolved (lysed) and the FAS activity was measured. The data was converted to that based on FAS protein, according to the results of WB performed using the same sample.

Chain of FAS (P19096 whole entry): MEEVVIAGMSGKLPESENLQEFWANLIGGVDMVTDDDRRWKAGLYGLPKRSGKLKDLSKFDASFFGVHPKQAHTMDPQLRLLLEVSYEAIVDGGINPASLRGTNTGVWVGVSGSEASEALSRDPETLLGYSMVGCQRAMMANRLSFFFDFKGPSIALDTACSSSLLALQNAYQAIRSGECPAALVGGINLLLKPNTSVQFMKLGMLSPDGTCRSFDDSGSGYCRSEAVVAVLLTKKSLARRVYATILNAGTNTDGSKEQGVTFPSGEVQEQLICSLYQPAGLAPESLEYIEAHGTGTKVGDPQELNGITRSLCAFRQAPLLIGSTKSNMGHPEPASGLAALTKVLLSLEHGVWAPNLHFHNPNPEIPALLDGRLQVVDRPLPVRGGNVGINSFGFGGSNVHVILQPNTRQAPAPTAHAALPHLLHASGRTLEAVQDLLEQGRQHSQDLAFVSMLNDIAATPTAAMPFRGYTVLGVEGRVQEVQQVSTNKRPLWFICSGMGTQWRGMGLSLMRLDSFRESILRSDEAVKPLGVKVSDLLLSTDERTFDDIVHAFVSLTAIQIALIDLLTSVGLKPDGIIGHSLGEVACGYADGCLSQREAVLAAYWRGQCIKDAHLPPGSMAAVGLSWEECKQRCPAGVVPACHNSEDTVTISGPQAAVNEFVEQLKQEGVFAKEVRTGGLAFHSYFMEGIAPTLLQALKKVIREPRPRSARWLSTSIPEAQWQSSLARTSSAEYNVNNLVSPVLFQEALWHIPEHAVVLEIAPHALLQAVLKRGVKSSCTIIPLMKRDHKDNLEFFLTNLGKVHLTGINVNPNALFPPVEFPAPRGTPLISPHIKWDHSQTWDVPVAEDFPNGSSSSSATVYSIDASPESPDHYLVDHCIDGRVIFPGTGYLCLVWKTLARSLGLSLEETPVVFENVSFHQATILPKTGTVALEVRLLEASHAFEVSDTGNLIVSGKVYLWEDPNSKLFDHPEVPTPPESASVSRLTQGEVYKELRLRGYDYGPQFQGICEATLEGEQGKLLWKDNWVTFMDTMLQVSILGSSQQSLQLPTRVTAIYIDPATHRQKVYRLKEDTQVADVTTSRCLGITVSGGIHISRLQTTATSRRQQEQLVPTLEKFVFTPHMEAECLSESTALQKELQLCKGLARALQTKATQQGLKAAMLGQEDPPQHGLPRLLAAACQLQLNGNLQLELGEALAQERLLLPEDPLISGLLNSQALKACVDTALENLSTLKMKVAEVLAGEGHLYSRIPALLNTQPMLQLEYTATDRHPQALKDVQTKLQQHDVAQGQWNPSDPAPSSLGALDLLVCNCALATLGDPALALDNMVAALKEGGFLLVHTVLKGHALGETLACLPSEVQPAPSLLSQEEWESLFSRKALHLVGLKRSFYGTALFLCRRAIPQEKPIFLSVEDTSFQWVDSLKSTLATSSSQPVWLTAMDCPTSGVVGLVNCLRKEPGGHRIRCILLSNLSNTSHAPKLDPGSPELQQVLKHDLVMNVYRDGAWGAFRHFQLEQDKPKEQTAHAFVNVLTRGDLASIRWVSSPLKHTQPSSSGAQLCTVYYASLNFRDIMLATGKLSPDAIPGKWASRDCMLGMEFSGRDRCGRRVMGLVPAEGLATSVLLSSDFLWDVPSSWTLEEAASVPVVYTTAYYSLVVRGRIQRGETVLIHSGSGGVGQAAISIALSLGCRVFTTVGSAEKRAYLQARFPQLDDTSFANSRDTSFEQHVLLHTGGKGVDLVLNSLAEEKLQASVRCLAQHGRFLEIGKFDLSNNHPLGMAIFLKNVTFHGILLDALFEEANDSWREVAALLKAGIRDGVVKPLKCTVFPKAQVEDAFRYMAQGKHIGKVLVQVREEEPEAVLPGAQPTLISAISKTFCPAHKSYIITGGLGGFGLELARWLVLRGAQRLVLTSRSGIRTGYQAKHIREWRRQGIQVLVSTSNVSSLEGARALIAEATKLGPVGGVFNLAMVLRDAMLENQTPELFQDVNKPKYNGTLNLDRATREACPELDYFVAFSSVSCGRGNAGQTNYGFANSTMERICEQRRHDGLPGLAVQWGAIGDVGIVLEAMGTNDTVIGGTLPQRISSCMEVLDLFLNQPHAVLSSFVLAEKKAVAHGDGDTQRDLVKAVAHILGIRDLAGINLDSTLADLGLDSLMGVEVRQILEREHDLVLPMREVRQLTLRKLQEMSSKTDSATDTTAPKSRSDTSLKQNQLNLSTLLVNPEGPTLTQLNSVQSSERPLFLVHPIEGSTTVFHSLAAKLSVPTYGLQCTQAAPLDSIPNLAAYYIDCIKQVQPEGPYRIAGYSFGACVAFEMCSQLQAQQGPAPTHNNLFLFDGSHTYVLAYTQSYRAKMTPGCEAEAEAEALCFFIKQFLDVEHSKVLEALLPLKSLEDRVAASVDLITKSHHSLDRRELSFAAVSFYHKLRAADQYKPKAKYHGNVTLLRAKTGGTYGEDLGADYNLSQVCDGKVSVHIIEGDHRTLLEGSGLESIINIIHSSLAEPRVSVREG

For C=C1C(=O)OC(CCCCCCCC)C1C(=O)O (stereo not shown) [C75], the “level of suppression of FAS activity in 3T3-L1 adipocytes” value was “level of suppression was the same”.
